Assay results from patent publication US20230102554A1 (GB002, INC., priority 2019, published 2023).

Key:
[1] = target: T1, Human PDGFRα, cytoplasmic domain (GST-PDGFRα) (Homo sapiens, UniProt P16234); assay: Human PDGFRα biochemical inhibition assay (off-chip Mobility Shift Assay)
T1 construct: made in house

[2] = target: T2, Human PDGFRβ, cytoplasmic domain (GST-PDGFRβ) (Homo sapiens, UniProt P09619); assay: Human PDGFRβ biochemical inhibition assay (off-chip Mobility Shift Assay)
T2 construct: made in house
How it was run: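 GST-tagged cytoplasmic domain (aa 557-1106) from baculovirus was incubated 1 h at room temperature with compound, CSKtide, ATP at Km and Mg²⁺ in HEPES buffer, pH 7.5. Phosphorylated and unphosphorylated peptide were separated by off-chip mobility shift, and the product ratio P/(P+S) gave percent inhibition.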

T2 sequence (P09619 with tags, fused parts or gaps): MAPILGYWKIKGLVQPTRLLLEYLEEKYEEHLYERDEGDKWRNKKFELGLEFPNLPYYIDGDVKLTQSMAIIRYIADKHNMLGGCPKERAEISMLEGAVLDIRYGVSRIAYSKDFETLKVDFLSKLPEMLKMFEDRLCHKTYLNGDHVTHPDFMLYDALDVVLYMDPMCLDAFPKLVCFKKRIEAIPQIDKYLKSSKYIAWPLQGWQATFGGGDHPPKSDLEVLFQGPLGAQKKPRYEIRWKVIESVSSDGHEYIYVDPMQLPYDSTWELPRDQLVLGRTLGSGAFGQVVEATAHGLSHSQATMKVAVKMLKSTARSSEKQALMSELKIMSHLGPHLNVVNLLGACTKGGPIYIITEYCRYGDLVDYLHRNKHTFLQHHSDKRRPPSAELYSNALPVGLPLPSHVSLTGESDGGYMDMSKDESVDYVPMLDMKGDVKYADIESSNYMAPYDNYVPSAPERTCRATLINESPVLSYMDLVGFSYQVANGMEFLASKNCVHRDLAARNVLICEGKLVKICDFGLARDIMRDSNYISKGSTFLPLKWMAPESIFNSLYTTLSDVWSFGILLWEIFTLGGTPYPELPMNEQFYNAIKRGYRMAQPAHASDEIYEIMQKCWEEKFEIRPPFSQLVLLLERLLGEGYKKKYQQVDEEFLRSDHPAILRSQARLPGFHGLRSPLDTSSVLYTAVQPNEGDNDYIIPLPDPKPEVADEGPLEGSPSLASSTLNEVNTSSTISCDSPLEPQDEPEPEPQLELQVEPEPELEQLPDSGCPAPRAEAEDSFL
T1 sequence (P16234 550-1089 T674I): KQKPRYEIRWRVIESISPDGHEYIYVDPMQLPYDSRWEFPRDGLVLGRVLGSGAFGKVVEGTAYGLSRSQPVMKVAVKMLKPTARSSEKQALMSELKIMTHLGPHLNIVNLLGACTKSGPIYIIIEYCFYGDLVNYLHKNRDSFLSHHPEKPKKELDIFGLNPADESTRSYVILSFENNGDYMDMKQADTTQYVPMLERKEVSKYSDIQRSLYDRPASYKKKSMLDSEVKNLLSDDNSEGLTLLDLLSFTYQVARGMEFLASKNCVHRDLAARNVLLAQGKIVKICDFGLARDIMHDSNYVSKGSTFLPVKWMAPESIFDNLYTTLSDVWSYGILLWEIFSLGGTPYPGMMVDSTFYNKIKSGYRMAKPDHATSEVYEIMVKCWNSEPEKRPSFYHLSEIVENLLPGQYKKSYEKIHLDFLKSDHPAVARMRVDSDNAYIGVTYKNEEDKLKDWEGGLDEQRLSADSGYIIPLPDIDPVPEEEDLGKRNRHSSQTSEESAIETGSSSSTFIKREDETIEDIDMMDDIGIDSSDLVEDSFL

| Compound | IC50 [1] [nM] | IC50 [2] [nM] |
| --- | --- | --- |
| Cc1cc(C(=O)Nc2cccc([C@H](C)Nc3cnc4cnn(C)c4n3)c2)ccc1C(=O)OC(C)C [Compound 258, isopropyl (S)-2-methyl-4-((3-(1-((1-methyl-1H-pyrazolo[3,4-b]pyrazin-6-yl)amino)ethyl)phenyl)carbamoyl)benzoate] | < 300 | < 300 |
| Cc1cc(C(=O)Nc2cccc([C@H](C)Nc3cnc4cnn(C)c4n3)c2)ccc1C(=O)OCC(C)C [Compound 263, isobutyl (S)-2-methyl-4-((3-(1-((1-methyl-1H-pyrazolo[3,4-b]pyrazin-6-yl)amino)ethyl)phenyl)carbamoyl)benzoate] | < 300 | 300 to 1000 |
| CSc1cc(C(=O)Nc2cccc([C@H](C)Nc3cnc4cnn(C)c4n3)c2)ccc1Cl [Compound 236, (S)-4-chloro-N-(3-(1-((1-methyl-1H-pyrazolo[3,4-b]pyrazin-6-yl)amino)ethyl)phenyl)-3-(methylthio)benzamide] | < 300 | < 300 |
| Cc1cc(C(=O)Nc2cccc([C@H](C)Nc3cnc4[nH]cc(-c5cnn(C)c5)c4n3)c2)cnc1C(F)(F)F [Compound 576, (S)-5-methyl-N-(3-(1-((7-(1-methyl-1H-pyrazol-4-yl)-5H-pyrrolo[2,3-b]pyrazin-2-yl)amino)ethyl)phenyl)-6-(trifluoromethyl)nicotinamide] | < 300 | < 300 |
| CCn1cc2ncc(N[C@@H](C)c3cc(NC(=O)Cc4cncc(C)c4)ccc3F)nc2n1 [Compound 652, (S)-N-(3-(1-((2-ethyl-2H-pyrazolo[3,4-b]pyrazin-6-yl)amino)ethyl)-4-fluorophenyl)-2-(5-methylpyridin-3-yl) acetamide] | < 300 | 300 to 1000 |
| C[C@H](Nc1cnc2cnn(C)c2n1)c1cccc(NC(=O)Cc2cnn(C)c2)c1 [Compound 629, (S)-2-(1-methyl-1H-pyrazol-4-yl)-N-(3-(1-((1-methyl-1H-pyrazolo[3,4-b]pyrazin-6-yl)amino)ethyl)phenyl)acetamide] | < 300 | ≥ 1000 |
| Cc1ccc(C(=O)Nc2cccc([C@H](C)Nc3cnc4cnn(C)c4n3)c2)s1 [Compound 133, (S)-5-methyl-N-(3-(1-((1-methyl-1H-pyrazolo[3,4-b]pyrazin-6-yl)amino)ethyl)phenyl)thiophene-2-carboxamide] | < 300 | < 300 |
| CCn1cc2ncc(N[C@@H](C)c3cccc(NC(=O)Cc4ccc(OC)c(F)c4)c3)nc2n1 [Compound 626, (S)-N-(3-(1-((2-ethyl-2H-pyrazolo[3,4-b]pyrazin-6-yl)amino)ethyl)phenyl)-2-(3-fluoro-4-methoxyphenyl) acetamide] | < 300 | ≥ 1000 |
| Cc1c[nH]c2ncc(N[C@@H](C)c3cccc(NC(=O)c4ccc(C(F)F)s4)c3)nc12 [Compound 560, (S)-5-(difluoromethyl)-N-(3-(1-((7-methyl-5H-pyrrolo[2,3-b]pyrazin-2-yl)amino)ethyl)phenyl)thiophene-2-carboxamide] | < 300 | < 300 |
| C[C@H](Nc1cnc2cnn(C)c2n1)c1cccc(NC(=O)c2cncc(S(C)(=O)=O)c2)c1 [Compound 227, (S)-N-(3-(1-((1-methyl-1H-pyrazolo[3,4-b]pyrazin-6-yl)amino)ethyl)phenyl)-5-(methylsulfonyl)nicotinamide] | < 300 | < 300 |
| Cc1cncc(C(=O)Nc2cccc([C@H](C)Nc3cnc4cnn(-c5cccnc5)c4n3)c2)c1 [Compound 273, (S)-5-methyl-N-(3-(1-((1-(pyridin-3-yl)-1H-pyrazolo[3,4-b]pyrazin-6-yl)amino)ethyl)phenyl)nicotinamide] | < 300 | < 300 |
| CCn1cc2ncc(N[C@@H](C)c3cccc(NC(=O)c4ccc(CN5CC[C@@H](F)C5)c(Cl)c4)c3)nc2n1 [Compound 464, 3-chloro-N-(3-((S)-1-((2-ethyl-2H-pyrazolo[3,4-b]pyrazin-6-yl)amino)ethyl)phenyl)-4-(((R)-3-fluoropyrrolidin-1-yl)methyl) benzamide] | < 300 | < 300 |
| Cc1cncc(C(=O)Nc2cccc([C@H](C)Nc3cnc4cnn(CC5CC5)c4n3)c2)c1 [Compound 181, (S)-N-(3-(1-((1-(cyclopropylmethyl)-1H-pyrazolo[3,4-b]pyrazin-6-yl)amino)ethyl)phenyl)-5-methylnicotinamide] | < 300 | < 300 |
| C[C@H](Nc1cnc2cnn(C)c2n1)c1cccc(NC(=O)c2ccc(C#N)nc2)c1 [Compound 117, (S)-6-cyano-N-(3-(1-((1-methyl-1H-pyrazolo[3,4-b]pyrazin-6-yl)amino)ethyl)phenyl) nicotinamide] | < 300 | ≥ 1000 |
| CCn1cc2ncc(N[C@@H](C)c3cc(NC(=O)Cc4cncc(C)c4)ccc3C)nc2n1 [Compound 666, (S)-N-(3-(1-((2-ethyl-2H-pyrazolo[3,4-b]pyrazin-6-yl)amino)ethyl)-4-methylphenyl)-2-(5-methylpyridin-3-yl) acetamide] | < 300 | < 300 |
| CCn1cc2ncc(N[C@@H](C)c3cccc(NC(=O)c4cnc(N5CCN(C)CC5)c(Cl)c4)c3)nc2n1 [Compound 421, (S)-5-chloro-N-(3-(1-((2-ethyl-2H-pyrazolo[3,4-b]pyrazin-6-yl)amino)ethyl)phenyl)-6-(4-methylpiperazin-1-yl) nicotinamide] | < 300 | < 300 |
| CCn1cc2ncc(N[C@@H](C)c3cc(NC(=O)Cc4ccc(C5CCC5)nc4)ccc3C)nc2n1 [Compound 672, (S)-2-(6-cyclobutylpyridin-3-yl)-N-(3-(1-((2-ethyl-2H-pyrazolo[3,4-b]pyrazin-6-yl)amino)ethyl)-4-methylphenyl) acetamide] | < 300 | ≥ 1000 |
| CCn1cc2ncc(N[C@@H](C)c3cccc(NC(=O)c4ccn(C(C)C)n4)c3)nc2n1 [Compound 305, (S)-N-(3-(1-((2-ethyl-2H-pyrazolo[3,4-b]pyrazin-6-yl)amino)ethyl)phenyl)-1-isopropyl-1H-pyrazole-3-carboxamide] | < 300 | 300 to 1000 |
| CCc1ccc(NC(=O)c2ccc(C(F)(F)F)nc2)cc1[C@H](C)Nc1cnc2cn(CC)nc2n1 [Compound 516, (S)-N-(4-ethyl-3-(1-((2-ethyl-2H-pyrazolo[3,4-b]pyrazin-6-yl)amino)ethyl)phenyl)-6-(trifluoromethyl)nicotinamide] | ≥ 1000 | ≥ 1000 |
| CCn1cc2ncc(N[C@@H](C)c3cc(NC(=O)Cc4ccc(C5CC5)nc4)ccc3F)nc2n1 [Compound 658, (S)-2-(6-cyclopropylpyridin-3 - yl)-N-(3-(1-((2-ethyl-2H-pyrazolo[3,4-b]pyrazin-6-yl)amino)ethyl)-4-fluorophenyl) acetamide] | 300 to 1000 | ≥ 1000 |
| C[C@H](Nc1cnc2cnn(C)c2n1)c1cccc(NC(=O)c2cc(C3CC3)on2)c1 [Compound 144, (S)-5-cyclopropyl-N-(3-(1-((1-methyl-1H-pyrazolo[3,4-b]pyrazin-6-yl)amino)ethyl)phenyl)isoxazole-3-carboxamide] | < 300 | < 300 |
| Cc1n[nH]c2ncc(N[C@@H](C)c3cccc(NC(=O)c4ccc(OC(F)(F)F)nc4)c3)nc12 [Compound 536, (S)-N-(3-(1-((3-methyl-1H-pyrazolo[3,4-b]pyrazin-5-yl)amino)ethyl)phenyl)-6-(trifluoromethoxy)nicotinamide] | < 300 | < 300 |
| CCNc1ccc(C(=O)Nc2cccc([C@H](C)Nc3cnc4cn(CC)nc4n3)c2)cn1 [Compound 394, (S)-N-(3-(1-((2-ethyl-2H-pyrazolo[3,4-b]pyrazin-6-yl)amino)ethyl)phenyl)-6-(ethylamino)nicotinamide] | < 300 | ≥ 1000 |
| CCOC(=O)c1ccc(C(=O)Nc2cccc([C@H](C)Nc3cnc4cnn(C)c4n3)c2)cc1C [Compound 255, ethyl (S)-2-methyl-4-((3-(1-((1-methyl-1H-pyrazolo[3,4-b]pyrazin-6-yl)amino)ethyl)phenyl)carbamoyl)benzoate] | < 300 | < 300 |
| Cc1cc(C(=O)Nc2cccc([C@H](C)Nc3cnc4cnn(C)c4n3)c2)ccc1CN1CCN(C)CC1 [Compound 208, (S)-3-methyl-N-(3-(1-((1-methyl-1H-pyrazolo[3,4-b]pyrazin-6-yl)amino)ethyl)phenyl)-4-((4-methylpiperazin-1-yl)methyl)benzamide] | < 300 | < 300 |
| CCn1cc2ncc(N[C@@H](C)c3cccc(NC(=O)c4cnc(Br)s4)c3)nc2n1 [Compound 324, (S)-2-bromo-N-(3-(1-((2-ethyl-2H-pyrazolo[3,4-b]pyrazin-6-yl)amino)ethyl)phenyl)thiazole-5-carboxamide] | < 300 | 300 to 1000 |
| CCn1cc2ncc(N[C@@H](C)c3cccc(NC(=O)c4cnc(NC5CCOCC5)c(C)c4)c3)nc2n1 [Compound 351, (S)-N-(3-(1-((2-ethyl-2H-pyrazolo[3,4-b]pyrazin-6-yl)amino)ethyl)phenyl)-5-methyl-6-((tetrahydro-2H-pyran-4-yl)amino)nicotinamide] | 300 to 1000 | ≥ 1000 |
| CCn1cc2ncc(N[C@@H](C)c3cc(NC(=O)Cc4ccc(Cl)cn4)ccc3F)nc2n1 [Compound 650, (S)-2-(5-chloropyridin-2-yl)-N-(3-(1-((2-ethyl-2H-pyrazolo[3,4-b]pyrazin-6-yl)amino)ethyl)-4-fluorophenyl)acetamide] | < 300 | 300 to 1000 |
| Cc1c[nH]c2ncc(N[C@@H](C)c3cccc(NC(=O)c4cc(C(C)C)on4)c3)nc12 [Compound 554, (S)-5-isopropyl-N-(3-(1-((7-methyl-5H-pyrrolo[2,3-b]pyrazin-2-yl)amino)ethyl)phenyl)isoxazole-3-carboxamide] | < 300 | < 300 |
